Laboratory results from ChEMBL document CHEMBL1201862, “PubChem BioAssay data set” (2004).
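Growth conditions: 96-well plates. Treatment: test compound, 48 hours, 5 concentrations. Analysis: linear interpolation between bracketing concentrations; unreached endpoints set to highest concentration. At the GI50, growth is halved.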 The source made the active and inactive calls. Rule as the data show it: active = GI50 up to about 1.1 µM and inactive = higher.

How the values were obtained:
Test in all cases: NCI anticancer screen, dose series, 48 h
[1] = system: 786-0
[2] = system: MDA-MB-231
[3] = system: NCI/ADR-RES
[4] = system: Malme-3M
[5] = system: ACHN
[6] = system: TK-10
[7] = system: EKVX
[8] = system: OVCAR-8
[9] = system: KM12
[10] = system: HL-60
[11] = system: A498
[12] = system: BT-549
[13] = system: NCI-H226
[14] = system: HT-29
[15] = system: LOX IMVI
[16] = system: UACC-62
[17] = system: A549
[18] = system: MDA-N
[19] = system: SF-268
[20] = system: SF-295

Measured: GI50

NC(CCC(=O)c1ccccn1)C(=O)O (stereo not given)
inactive: [1] > 100 µM | [2] > 100 µM | [3] > 100 µM | [4] > 100 µM | [5] > 100 µM | [6] > 100 µM | [7] > 100 µM | [8] > 100 µM | [9] > 100 µM | [10] > 100 µM | [11] > 100 µM | [12] > 100 µM | [13] > 100 µM | [14] > 100 µM | [15] > 100 µM | [16] > 100 µM | [17] > 100 µM | [18] > 100 µM | [19] > 100 µM | [20] > 100 µM

CC(=O)O/C=C\OC1CCCC1(c1ccccc1)c1ccccc1 (stereo not given)
inactive: [1] 3.21 µM | [2] 2.4 µM | [3] 2.84 µM | [4] 2.18 µM | [5] 2.03 µM | [6] 3.48 µM | [7] 7.5 µM | [8] 2.42 µM | [9] 3.49 µM | [10] 1.34 µM | [11] 18 µM | [12] 1.95 µM | [13] 9.04 µM | [14] 2.91 µM | [15] 1.63 µM | [16] 5.27 µM | [17] 20.4 µM | [18] 2.31 µM | [19] 2.92 µM | [20] 8.11 µM

CCOc1ccc2c(c1)C(/C(C(Cl)=C(Cl)Cl)=[N+](/[O-])OC(=O)c1ccccc1)=N2
inactive: [1] 72.4 µM | [2] 45.7 µM | [3] 57.3 µM | [4] > 100 µM | [5] 73.1 µM | [6] 99.3 µM | [7] 15.4 µM | [8] 72.8 µM | [9] 35.9 µM | [10] 33.7 µM | [11] > 100 µM | [12] 25.4 µM | [13] 37.3 µM | [14] 61.2 µM | [15] 57.9 µM | [16] 77.6 µM | [17] 47 µM | [18] 37 µM | [19] 44.5 µM | [20] 49.7 µM

CC(=O)Nc1ccc2cc3c(nc2n1)c1cccnc1n3S(=O)(=O)c1ccccc1
inactive: [1] 8.02 µM | [2] > 100 µM | [3] > 100 µM | [4] > 100 µM | [5] > 100 µM | [6] > 100 µM | [7] > 100 µM | [8] > 100 µM | [9] > 100 µM | [10] > 100 µM | [11] > 100 µM | [12] > 100 µM | [13] > 100 µM | [14] > 100 µM | [15] 2.66 µM | [16] > 100 µM | [17] > 100 µM | [18] > 100 µM | [19] > 100 µM | [20] > 100 µM

Cc1cccc2c(N)c3cccc(C(=O)NCC[N+]4(Cc5ccc([N+](=O)[O-])cc5)CCOCC4)c3nc12
inactive: [1] 12.8 µM | [2] > 60.1 µM | [3] > 95.1 µM | [4] 29.4 µM | [5] 29 µM | [6] > 79.1 µM | [7] 36.2 µM | [8] 30.4 µM | [9] 37.8 µM | [10] 18.2 µM | [11] 42.2 µM | [12] 47.5 µM | [13] 41 µM | [14] 25.8 µM | [15] 39.9 µM | [16] > 51.4 µM | [17] 31.5 µM | [18] 59.6 µM | [19] 15.6 µM | [20] 27.5 µM
